Measured values as given in ChEMBL document CHEMBL1201862, “PubChem BioAssay data set” (2004).
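A five-concentration, 48-hour dose response in 96-well plates underlies each endpoint, interpolated linearly between surrounding concentrations. At the GI50, growth is halved.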 The source made the active and inactive calls. No stated cut-off is given here; in the data, active = GI50 up to about 1.1 µM and inactive = higher.

How the values were obtained:
Test in all cases: DTP human tumour cell line panel, 48 h
A498 = test system: A498
NCI-H226 = test system: NCI-H226
UO-31 = test system: UO-31
SF-539 = test system: SF-539
SW-620 = test system: SW-620
HCT-116 = test system: HCT-116
A549 = test system: A549
SK-MEL-5 = test system: SK-MEL-5
SK-MEL-28 = test system: SK-MEL-28
HCC 2998 = test system: HCC 2998
SK-MEL-2 = test system: SK-MEL-2
Hs-578T = test system: Hs-578T
SNB-19 = test system: SNB-19
OVCAR-4 = test system: OVCAR-4
U-251 = test system: U-251
SF-295 = test system: SF-295
OVCAR-5 = test system: OVCAR-5
RPMI-8226 = test system: RPMI-8226
MDA-N = test system: MDA-N
IGROV-1 = test system: IGROV-1
HOP-92 = test system: HOP-92
HL-60 = test system: HL-60
UACC-257 = test system: UACC-257
T47D = test system: T47D
COLO 205 = test system: COLO 205
NCI-H522 = test system: NCI-H522
SK-OV-3 = test system: SK-OV-3
HT-29 = test system: HT-29
OVCAR-3 = test system: OVCAR-3
MOLT-4 = test system: MOLT-4
MCF7 = test system: MCF7
SR = test system: SR
K562 = test system: K562
MDA-MB-435 = test system: MDA-MB-435
SF-268 = test system: SF-268
DU-145 = test system: DU-145
HOP-62 = test system: HOP-62
KM12 = test system: KM12
UACC-62 = test system: UACC-62
NCI-H460 = test system: NCI-H460
CCRF-CEM = test system: CCRF-CEM
LOX IMVI = test system: LOX IMVI
SN12C = test system: SN12C
NCI-H23 = test system: NCI-H23
BT-549 = test system: BT-549
TK-10 = test system: TK-10
EKVX = test system: EKVX
NCI/ADR-RES = test system: NCI/ADR-RES
ACHN = test system: ACHN
HCT-15 = test system: HCT-15
OVCAR-8 = test system: OVCAR-8
CAKI-1 = test system: CAKI-1
786-0 = test system: 786-0
RXF 393 = test system: RXF 393
MDA-MB-231 = test system: MDA-MB-231
Malme-3M = test system: Malme-3M
PC-3 = test system: PC-3
M14 = test system: M14
SNB-75 = test system: SNB-75

`COc1ccc(/C=C2\CN(C)CC3C2=NC(=S)NC3c2ccc(OC)cc2)cc1` (stereo unspecified) was tested, and the GI50 (A498) was 3.27 µM (inactive), the GI50 (NCI-H226) was 41.5 µM (inactive) and the GI50 (UO-31) was 4.95 µM (inactive). For the same compound, the GI50 (SF-539) was 7.11 µM (inactive), the GI50 (SW-620) was 6.05 µM (inactive) and the GI50 (HCT-116) was 3.43 µM (inactive). The GI50 (A549) was 4 µM (inactive), the GI50 (SK-MEL-5) was 4.24 µM (inactive) and the GI50 (SK-MEL-28) was > 66.7 µM (inactive). For the same compound, the GI50 (HCC 2998) was 6.75 µM (inactive), the GI50 (SK-MEL-2) was 13.9 µM (inactive) and the GI50 (Hs-578T) was 52.7 µM (inactive). The GI50 (SNB-19) was 5.66 µM (inactive), the GI50 (OVCAR-4) was 4.92 µM (inactive) and the GI50 (U-251) was 8.55 µM (inactive). For the same compound, the GI50 (SF-295) was 3.69 µM (inactive), the GI50 (OVCAR-5) was 19.3 µM (inactive) and the GI50 (RPMI-8226) was 2.99 µM (inactive). The GI50 (MDA-N) was 1.08 µM (active), the GI50 (IGROV-1) was 2.98 µM (inactive) and the GI50 (HOP-92) was 3.21 µM (inactive). The GI50 (HL-60) was 2.19 µM (inactive), the GI50 (UACC-257) was 4.82 µM (inactive) and the GI50 (T47D) was 4.11 µM (inactive). For the same compound, the GI50 (COLO 205) was 3.67 µM (inactive), the GI50 (NCI-H522) was 1.63 µM (inactive) and the GI50 (SK-OV-3) was 5.66 µM (inactive). The GI50 (HT-29) was 3.51 µM (inactive), the GI50 (OVCAR-3) was 1.98 µM (inactive) and the GI50 (MOLT-4) was 2.9 µM (inactive). For the same compound, the GI50 (MCF7) was 2.82 µM (inactive), the GI50 (SR) was 0.865 µM (active) and the GI50 (K562) was 3.95 µM (inactive). For the same compound, the GI50 (MDA-MB-435) was 1.33 µM (inactive), the GI50 (SF-268) was 5.64 µM (inactive) and the GI50 (DU-145) was 4.68 µM (inactive). For the same compound, the GI50 (HOP-62) was 6.46 µM (inactive), the GI50 (KM12) was 2.97 µM (inactive) and the GI50 (UACC-62) was 4.58 µM (inactive). The GI50 (NCI-H460) was 2.8 µM (inactive), the GI50 (CCRF-CEM) was 8.13 µM (inactive) and the GI50 (LOX IMVI) was 4.76 µM (inactive). For the same compound, the GI50 (SN12C) was 6.81 µM (inactive), the GI50 (NCI-H23) was 7.96 µM (inactive) and the GI50 (BT-549) was 7.6 µM (inactive). The GI50 (TK-10) was 27.2 µM (inactive), the GI50 (EKVX) was 11.5 µM (inactive) and the GI50 (NCI/ADR-RES) was 2.55 µM (inactive). For the same compound, the GI50 (ACHN) was 5.73 µM (inactive), the GI50 (HCT-15) was 3.46 µM and the GI50 (OVCAR-8) was 7.8 µM (inactive). For the same compound, the GI50 (CAKI-1) was 6.64 µM (inactive), the GI50 (786-0) was 3.66 µM (inactive) and the GI50 (RXF 393) was 2.17 µM (inactive). The GI50 (MDA-MB-231) was 13.3 µM (inactive), the GI50 (Malme-3M) was 2.99 µM (inactive) and the GI50 (PC-3) was 6.21 µM (inactive). The GI50 (M14) was 2.77 µM (inactive).

`O=C1/C(=C/c2ccccc2[N+](=O)[O-])N=C(c2ccccc2)N1c1nc2ccccc2s1` was tested, and the GI50 (A498) was 28.1 µM (inactive), the GI50 (NCI-H226) was 41.3 µM (inactive) and the GI50 (UO-31) was 31.6 µM (inactive). For the same compound, the GI50 (SF-539) was 30.1 µM (inactive), the GI50 (SW-620) was 34.4 µM (inactive) and the GI50 (HCT-116) was 17.9 µM (inactive). The GI50 (A549) was 34.2 µM (inactive), the GI50 (SNB-75) was 27.3 µM (inactive) and the GI50 (SK-MEL-5) was 25.2 µM (inactive). For the same compound, the GI50 (SK-MEL-28) was 31.3 µM (inactive), the GI50 (HCC 2998) was 17.8 µM (inactive) and the GI50 (SK-MEL-2) was 33.2 µM (inactive). For the same compound, the GI50 (Hs-578T) was 19.1 µM (inactive), the GI50 (SNB-19) was 42.6 µM (inactive) and the GI50 (OVCAR-4) was 19.4 µM (inactive). The GI50 (U-251) was 29.4 µM (inactive), the GI50 (SF-295) was 40.2 µM (inactive) and the GI50 (OVCAR-5) was 73.6 µM (inactive). For the same compound, the GI50 (RPMI-8226) was 9.82 µM (inactive), the GI50 (MDA-N) was 26.1 µM (inactive) and the GI50 (IGROV-1) was 11.9 µM (inactive). The GI50 (HOP-92) was 21 µM (inactive), the GI50 (HL-60) was 26.1 µM (inactive) and the GI50 (UACC-257) was 65 µM (inactive). The GI50 (T47D) was 21.7 µM (inactive), the GI50 (NCI-H522) was 18.6 µM (inactive) and the GI50 (HT-29) was 35.4 µM (inactive). For the same compound, the GI50 (OVCAR-3) was 21.1 µM (inactive), the GI50 (MOLT-4) was 5.92 µM (inactive) and the GI50 (MCF7) was 13 µM (inactive). The GI50 (SR) was 12.9 µM (inactive), the GI50 (K562) was 15 µM (inactive) and the GI50 (MDA-MB-435) was 19.4 µM (inactive). For the same compound, the GI50 (SF-268) was 20.5 µM (inactive), the GI50 (DU-145) was 20.9 µM (inactive) and the GI50 (HOP-62) was 27.1 µM (inactive). The GI50 (KM12) was 17.9 µM (inactive), the GI50 (NCI-H460) was 27 µM (inactive) and the GI50 (CCRF-CEM) was < 0.01 µM (active). The GI50 (LOX IMVI) was 22 µM (inactive), the GI50 (SN12C) was 25 µM (inactive) and the GI50 (NCI-H23) was 17.4 µM (inactive). For the same compound, the GI50 (BT-549) was 20 µM (inactive), the GI50 (TK-10) was 49.2 µM (inactive) and the GI50 (EKVX) was 29 µM (inactive). For the same compound, the GI50 (NCI/ADR-RES) was 16.6 µM (inactive), the GI50 (ACHN) was 23.2 µM (inactive) and the GI50 (HCT-15) was 17.5 µM. For the same compound, the GI50 (OVCAR-8) was 17.4 µM (inactive), the GI50 (CAKI-1) was 34.1 µM (inactive) and the GI50 (786-0) was 21.7 µM (inactive). For the same compound, the GI50 (RXF 393) was 16.9 µM (inactive), the GI50 (MDA-MB-231) was 45.9 µM (inactive) and the GI50 (PC-3) was 31 µM (inactive). For the same compound, the GI50 (M14) was 42.7 µM (inactive).

With `COC(=O)CC[C@@H](C)[C@H]1CC[C@H]2[C@@H]3CC[C@@H]4C[C@H](O)CC[C@]4(C)[C@H]3CC[C@]12C` the GI50 (A498) was 20.5 µM (inactive), the GI50 (NCI-H226) was 20.3 µM (inactive) and the GI50 (UO-31) was 19 µM (inactive). The GI50 (SF-539) was 18.5 µM (inactive), the GI50 (SW-620) was 29.6 µM (inactive) and the GI50 (HCT-116) was 17.1 µM (inactive). For the same compound, the GI50 (A549) was 18.5 µM (inactive), the GI50 (SNB-75) was 19.1 µM (inactive) and the GI50 (SK-MEL-5) was 16.9 µM (inactive). The GI50 (SK-MEL-28) was 19 µM (inactive), the GI50 (SK-MEL-2) was 18.7 µM (inactive) and the GI50 (Hs-578T) was 23.1 µM (inactive). For the same compound, the GI50 (SNB-19) was 21.6 µM (inactive), the GI50 (OVCAR-4) was 19 µM (inactive) and the GI50 (U-251) was 20.7 µM (inactive). The GI50 (SF-295) was 18.2 µM (inactive), the GI50 (OVCAR-5) was 19.8 µM (inactive) and the GI50 (RPMI-8226) was 11.7 µM (inactive). For the same compound, the GI50 (MDA-N) was 19.1 µM (inactive), the GI50 (IGROV-1) was 17.2 µM (inactive) and the GI50 (HOP-92) was 13.8 µM (inactive). For the same compound, the GI50 (HL-60) was 15 µM (inactive), the GI50 (UACC-257) was 14.8 µM (inactive) and the GI50 (T47D) was 19.4 µM (inactive). For the same compound, the GI50 (COLO 205) was 19.5 µM (inactive), the GI50 (NCI-H522) was 18.3 µM (inactive) and the GI50 (SK-OV-3) was 20.8 µM (inactive). The GI50 (HT-29) was 16.6 µM (inactive), the GI50 (OVCAR-3) was 18.1 µM (inactive) and the GI50 (MOLT-4) was 14.5 µM (inactive). The GI50 (MCF7) was 18.3 µM (inactive), the GI50 (SR) was 14.9 µM (inactive) and the GI50 (K562) was 10.7 µM (inactive). The GI50 (MDA-MB-435) was 16.7 µM (inactive), the GI50 (SF-268) was 21.6 µM (inactive) and the GI50 (DU-145) was 17.7 µM (inactive). For the same compound, the GI50 (HOP-62) was 18.4 µM (inactive), the GI50 (KM12) was 17.5 µM (inactive) and the GI50 (UACC-62) was 17.9 µM (inactive). For the same compound, the GI50 (NCI-H460) was 19.3 µM (inactive), the GI50 (CCRF-CEM) was 18.2 µM (inactive) and the GI50 (LOX IMVI) was 18.7 µM (inactive). The GI50 (SN12C) was 18.6 µM (inactive), the GI50 (NCI-H23) was 16.5 µM (inactive) and the GI50 (BT-549) was 16.2 µM (inactive). The GI50 (TK-10) was 20.3 µM (inactive), the GI50 (EKVX) was 19.2 µM (inactive) and the GI50 (NCI/ADR-RES) was 19 µM (inactive). For the same compound, the GI50 (ACHN) was 20.7 µM (inactive), the GI50 (HCT-15) was 17.1 µM and the GI50 (OVCAR-8) was 19 µM (inactive). For the same compound, the GI50 (CAKI-1) was 17.9 µM (inactive), the GI50 (786-0) was 18.5 µM (inactive) and the GI50 (RXF 393) was 18.2 µM (inactive). For the same compound, the GI50 (MDA-MB-231) was 17.8 µM (inactive), the GI50 (Malme-3M) was 17 µM (inactive) and the GI50 (PC-3) was 17.3 µM (inactive). The GI50 (M14) was 18.5 µM (inactive).
